Tests used:
procaspase-3 = target: T1, procaspase-3 (Homo sapiens, UniProt P42574); assay: Procaspase-3 activity assay (relief of zinc-mediated inhibition, Ac-DEVD-pNA cleavage); format: biochemical; details: procaspase-3 incubated with […] ZnSO4; method gives compounds at 25 μM
T1 construct: 6xHis (C); made in house; host or cells: Rosetta E. coli
T1 sequence (P42574 1-277): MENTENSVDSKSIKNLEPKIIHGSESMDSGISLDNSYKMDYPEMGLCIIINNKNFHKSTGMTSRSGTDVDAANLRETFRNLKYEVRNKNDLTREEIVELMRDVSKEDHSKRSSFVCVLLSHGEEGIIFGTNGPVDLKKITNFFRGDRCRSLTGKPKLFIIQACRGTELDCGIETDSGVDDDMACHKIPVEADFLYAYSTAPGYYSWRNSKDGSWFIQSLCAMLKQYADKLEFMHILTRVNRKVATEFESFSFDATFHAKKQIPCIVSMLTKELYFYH
Protocol: The six confirmed hits were then evaluated in vitro for their ability to relieve zinc-mediated inhibition of procaspase-3 (Table A). In this experiment, procaspase-3 was incubated with ZnSO4, conditions in which procaspase-3 has no enzymatic activity.
Techniques adapted from Hergenrother and coworkers (Putt et al., Nat Chem Biol 2006, 2, 543-550). A 20 mL volume of an overnight culture of Rosetta E. coli containing the procaspase-3 (wild-type) expression plasmid was seeded into 2 L of LB media containing ampicillin. The culture was grown to an OD600=1.0, at which point protein expression was induced via addition of IPTG (to 1 mM); the culture was allowed to grow for 30 additional minutes. Cells were then harvested (10 minute spins at 10,000×g and re-suspended in NTA binding buffer (300 mM NaCl, 50 mM Tris, 10 mM imidazole, pH 8.0). The cells were lysed on ice via sonication. The cell lysate was then spun at 35,000×g for […] The supernatant was decanted and 1 mL of nickel-NTA resin was added. The cell lysate was incubated for 45 minutes at 4° C. The resin was loaded on a column, washed with 10 mL NTA binding buffer followed by 10 mL NTA wash buffer (300 mM NaCl, 50 mM Tris, 50 mM imidazole, pH 8.0). The proteins were eluted in 0.5 mL fractions with 10 mL of NTA elution buffer (300 mM NaCl, 50 mM Tris, 500 mM imidazole, pH 8.0). Fractions containing protein were pooled and further purified to remove any contaminating zinc by applying the protein to a PD-10 column (GE Healthcare) charged with Caspase Activity Buffer that had been treated with Chelex® resin. The resulting concentration was determined using the Edelhoch method and the molar absorptivity of procaspase-3 of 26150 M^−1 cm^−1. Protein stocks were flash-frozen in liquid nitrogen and stored at −80° C.
In a 384-well plate recombinantly expressed, zinc-free procaspase-3 (wild type, at 1 μM) in Caspase Activity Buffer (50 mM HEPES, 300 mM NaCl, 1.5 mM TCEP, 0.01% TritonX-100) was incubated at 37° C. in the presence of 3.5 μM ZnSO4 and the basal activity was assessed via the addition of Ac-DEVD-pNA (final concentration in well of 200 μM). The absorbance at 405 nm was monitored with a SpectraMax plate reader (Molecular Devices). […] Activity of each treatment was assessed at 5, 20, 40 and 60 minutes via 5-minute kinetic reads. The slope of each data set was used to determine the activity of the protein. Activity was normalized to a percent activity at each time point using a zinc-free sample and a zinc-inhibited sample treated with DMSO.

[1] = test system: U-937 cells (human lymphoma); assay: 72 Hour IC50 cell death assay (sulforhodamine B); format: cell-based; details: read-out: U-937 72 h IC50 (μM), Table 1, U-937 cells, 72 h
Protocol: After the synthesis was complete, the biological activity of the compounds was evaluated.
U-937 human lymphoma cells were plated into the wells of 96 well plate at a density of 15,000 cells per well in 99 μL of RPMI 1640 growth media with 10% FBS and 1% pen-strep. To each well was added 1 μL of compound stock solutions in DMSO at varying concentrations such that the cells were treated with concentrations between 0 μM and 100 μM compound. Each concentration was tested in quintuplicate per plate. In each plate 5 wells received 20 μM doxorubicin as a positive death control and 5 wells received 1 μL of DMSO as a negative control.
After the 72 hour incubation period, the plates were analyzed using a Sulforhodamine B assay (Vichai and Kirtikara, Nat Protoc 2006, 1, 1112-1116). Specifically, to each well of the plate 25 μL of a 50% (w/v) solution of trichloroacetic acid in H2O was added and the plates were incubated for 4 hours at 4° C. The plates were then washed gently with water five times. The plates were allowed to air dry after which 100 μL of a 0.057% (w/v) Sulforhodamine B in a 1% (v/v) acetic acid solution was added to each well for 30 minutes at room temperature. The plates were gently washed 5 times with 1% (v/v) acetic acid and air dried. 200 μL of 10 mM Tris base (pH 10.4) was added to each well and the plates were placed on an orbital shaker for thirty minutes. The level of SRB was quantified fluorometrically at excitation and emission wavelengths 488 and 585 nm, respectively, on a Molecular Devices plate reader and the percent cell death calculated and normalized to the positive control (100% cell death) and the negative control (0% cell death). The percent cell death was averaged for each compound concentration and plotted as a function of compound concentration. The data were fit to a logistical dose response curve using Table curve 2D and the IC50 value was calculated. The experiment was repeated three times and the average of the calculated IC50 values was reported. The standard error of the mean (SEM) was determined and reported for the triplicate experiments.

[2] = Liver microsome stability assay; format: in vitro ADME; details: rat liver microsomes, 10 μM, LC/MS
Protocol: FIG. 4. Liver Microsome Stability Assay. Compounds (10 μM) incubated with liver microsomes for 3 h and quenched with MeCN containing internal standard, analyzed by LC/MS (280 nm). Next, the metabolic stability of the compounds was evaluated in rat liver microsomes. The compounds were evaluated for 3 hours at 10 μM, and the metabolites were observed by LC/MS.

mice = assay: Assessment of toxicity in vivo; details: mice; scale 0 to 3, or time of death
Description: The level of toxicity was rated on a scale of 0 (no observable adverse effect) to 3 (severe toxicity, almost fatal).

SMILES	Procaspase-3 (% Activity at […]) (procaspase-3)	IC50 [1]	RLM 3 h % Stability [2]	Mouse Toxicity (mice)
C=CCc1cccc(/C=N/NC(=O)CN2CCN(Cc3ccc(C(C)(C)C)cc3)CC2)c1O [3{20,24}, N′-(3-allyl-2-hydroxybenzylidene)-2-(4-(4-(tert-butyl)benzyl)piperazin-1-yl)acetohydrazide]	82 ± 2.4%	–	–	–
CC(C)(C)c1cc(/C=N/NC(=O)CN2CCN(Cc3ccc(OCc4ccccc4)cc3)CC2)c(O)c(C(C)(C)C)c1 [3{18,7}]	36 ± 1.6%	–	–	–
O=C(CN1CCN(Cc2ccccc2)CC1)N/N=C/c1cc(F)ccc1O [Compound 19, 2-(4-benzylpiperazin-1-yl)-N′-(5-fluoro-2-hydroxybenzylidene)acetohydrazide]	–	17 ± 1.4 µM	64 ± 4%	3
NS(=O)(=O)c1ccc(CN2CCN(CC(=O)N/N=C/c3cc(F)ccc3O)CC2)cc1 [Compound 20, 4-((4-(2-(2-(5-fluoro-2-hydroxybenzylidene)hydrazinyl)-2-oxoethyl)piperazin-1-yl)methyl)benzenesulfonamide]	–	19.6 ± 3.8 µM	85 ± 6%	death >72 h (greater than 72 hours post-treatment)
C=CCc1cccc(/C=N/NC(=O)CN2CCN(C(=O)c3ccccc3)CC2)c1O [Compound 3, N′-(3-allyl-2-hydroxybenzylidene)-2-(4-benzoylpiperazin-1-yl)acetohydrazide]	–	12.1 ± 1.3 µM	89 ± 4%	3
COc1ccc(OC)c(CN2CCN(CC(=O)N/N=C/c3cc(C(C)(C)C)cc(C(C)(C)C)c3O)CC2)c1 [3{4,7}]	64 ± 2.5%	–	–	–
N#Cc1ccc(CN2CCN(CC(=O)N/N=C/c3cc(F)ccc3O)CC2)cc1 [Compound 22, 2-(4-(4-cyanobenzyl)piperazin-1-yl)-N′-(5-fluoro-2-hydroxybenzylidene)acetohydrazide]	–	13.5 ± 1 µM	79 ± 4%	death <24 h (the mice died either within 24 hours of treatment)
O=C(CN1CCN(Cc2ccc(C(F)(F)F)cc2)CC1)N/N=C/c1cc(F)ccc1O [Compound 26, N′-(5-fluoro-2-hydroxybenzylidene)-2-(4-(4-(trifluoromethyl)benzyl)piperazin-1-yl)acetohydrazide]	–	4.7 ± 0.3 µM	30 ± 5%	3
CCCc1cc(F)cc(/C=N/NC(=O)CN2CCN(C(=O)c3ccccc3)CC2)c1O [Compound 39, 2-(4-benzoylpiperazin-1-yl)-N′-(5-fluoro-2-hydroxy-3-propylbenzylidene)acetohydrazide]	–	12.3 ± 1 µM	86 ± 5%	2
C=CCc1cc(F)cc(/C=N/NC(=O)CN2CCN(Cc3ccccc3)CC2)c1O [Compound 28, N′-(3-allyl-5-fluoro-2-hydroxybenzylidene)-2-(4-benzylpiperazin-1-yl)acetohydrazide]	–	9.5 ± 0.9 µM	56 ± 1%	death <24 h (the mice died either within 24 hours of treatment)
CCCc1cccc(/C=N/NC(=O)CN2CCN(Cc3ccc(F)cc3)CC2)c1O [Compound 15, 2-(4-(4-fluorobenzyl)piperazin-1-yl)-N′-(2-hydroxy-3-propylbenzylidene)acetohydrazide]	–	10 ± 1.7 µM	24 ± 2%	death <24 h (the mice died either within 24 hours of treatment)
C=CCc1cccc(/C=N/NC(=O)CN2CCN(C(=O)c3ccc(C#N)cc3)CC2)c1O [Compound 5, N′-(3-allyl-2-hydroxybenzylidene)-2-(4-(4-cyanobenzoyl)piperazin-1-yl)acetohydrazide]	–	13.1 ± 3.7 µM	90 ± 4%	death >72 h (greater than 72 hours post-treatment)
O=C(CN1CCN(Cc2ccc(F)cc2)CC1)N/N=C/c1cc(F)ccc1O [Compound 24, N′-(5-fluoro-2-hydroxybenzylidene)-2-(4-(4-fluorobenzyl)piperazin-1-yl)acetohydrazide]	–	11.7 ± 1.4 µM	62 ± 2%	3
C=CCc1cccc(/C=N/NC(=O)CN2CCN(Cc3ccc(F)cc3)CC2)c1O [Compound 6, N′-(3-allyl-2-hydroxybenzylidene)-2-(4-(4-fluorobenzyl)piperazin-1-yl)acetohydrazide]	–	11.1 ± 2.1 µM	31 ± 1%	3
C=CCc1cccc(/C=N/NC(=O)CN2CCN(C(=O)c3ccc(F)cc3)CC2)c1O [Compound 7, N′-(3-allyl-2-hydroxybenzylidene)-2-(4-(4-fluorobenzoyl)piperazin-1-yl)acetohydrazide]	–	10.2 ± 1.7 µM	86 ± 2%	2
CCCc1cc(F)cc(/C=N/NC(=O)CN2CCN(Cc3ccccc3)CC2)c1O [Compound 37, 2-(4-benzylpiperazin-1-yl)-N′-(5-fluoro-2-hydroxy-3-propylbenzylidene)acetohydrazide]	–	8.9 ± 1.2 µM	49 ± 6%	death <24 h (the mice died either within 24 hours of treatment)
CCc1ccc(CN2CCN(CC(=O)N/N=C/c3cc(C(C)(C)C)cc(C(C)(C)C)c3O)CC2)cc1 [3{28,7}]	60 ± 2.4%	–	–	–
COc1ccc(CN2CCN(CC(=O)N/N=C/c3cc(C(C)(C)C)cc(C(C)(C)C)c3O)CC2)cc1 [3{2,7}]	53 ± 4.1%	–	–	–
C=CCc1cccc(/C=N/NC(=O)CN2CCN(Cc3ccc(C#N)cc3)CC2)c1O [Compound 4, N′-(3-allyl-2-hydroxybenzylidene)-2-(4-(4-cyanobenzyl)piperazin-1-yl)acetohydrazide]	–	13.7 ± 0.9 µM	48 ± 2%	1
CCCc1cc(F)cc(/C=N/NC(=O)CN2CCN(C(=O)c3ccc(F)cc3)CC2)c1O [Compound 43, N′-(5-fluoro-2-hydroxy-3-propylbenzylidene)-2-(4-(4-fluorobenzoyl)piperazin-1-yl)acetohydrazide]	–	7.5 ± 1.4 µM	67 ± 3%	3

— patent US9249116B2, “Enzyme-activating compounds and compositions” (The Board of Trustees of the University of Illinois, priority 2012, dated 2016)
